Test results from patent US8487137B2, “Photochemical crosslinkers for polymer coatings and substrate tie-layer” (Innovative Surface Technologies, LLC, priority 2005, dated 2013).

Experiments:
[1] = Solubility of crosslinker in common solvents and water; type: physicochemical; details: chloroform, methylene chloride, acetone, ethyl acetate, isopropanol, etc.
Excerpt: The peaks at d 7.78 ppm (m, 12H), 7.46 ppm (m, 9H), 6.98 ppm (m, 6H) were the typical signals from 4-substituted benzophenone. The peak at d 4.35 ppm (m, 6H) was assigned to the protons of methylene connected to phenoxy group. The peak at d 4.13 ppm (m, 9H) was a combination of 6 protons of 3 methylene groups connected to nitrogen atom and 3 protons from 3 methine groups. The peak at d 3.00 ppm (s, 3H) corresponded to hydroxyl groups.
The peaks at 7.49˜7.79 ppm (m, 18H) were the typical signals from 4-substituted benzophenone. The peak at 4.66 ppm (s, 4H) was assigned to the protons of methylene connected to benzophenone group. The peak at 3.70 ppm (m, 16H) corresponded to ethylene groups.
The peaks at 7.26˜7.79 ppm (m, 18H) were the typical signals from 4-substituted benzophenone. The peak at 4.64 ppm (s, 4H) was assigned to the protons of methylene connected to benzophenone group. The peak at 3.66 ppm (m, 24H) corresponded to ethylene groups.

[2] = Static contact angle with water on coated PVC coverslips (goniometer); type: physicochemical
Procedure: A coating solution was made up from the crude glycol linker product isolated in Example 3 (0.5 mg/ml glycol in isopropanol with 50 mg/ml polyvinylpyrrolidone (Kollidon K30, BASF, N.J.)). 100 μl of the coating solution was applied to PVC coverslips (Fisher Scientific, Pittsburgh, Pa.) and allowed to dry overnight. All pieces were illuminated for a set time in a uv crosslinker (UVP CL-1000, Upland, Calif., 254 nm light, 120,000 μJ/cm^2) from 0 to 10 minutes. Pieces were then rinsed for 30 minutes in deionized water with gentle agitation. The static contact angle with water was taken on a goniometer (MicroVu 400, Santa Ana, Calif.), three 3 μl drops of water were measured, three times apiece. Contact angles are shown below.
A coating solution of purified triazine crosslinker isolated in Example 1 was made by adding 44 mg of crosslinker to 1 ml of acetone, diluted with 19 ml of isopropanol, then adding 1000 mg of poly(vinylpyrrolidone) (PVP) (Kollidon K30, BASF, N.J.). The resulting solution was thoroughly mixed on an orbital shaker for four hours. 18 samples were prepared by adding 100, 200, or 500 μl of coating solution onto PVC Coverslips (Fisher Scientific, Pittsburgh, Pa.) (n=6 for each condition), then air drying. The sample pieces were illuminated for five minutes in a uv chamber (UVP CL-1000, Upland, Calif., 254 nm light, 120,000 μJ/cm^2), then rinsed for four hours in deionized water with gentle agitation. 4 pieces of each variable were then stained with Congo red dye to determine the presence of PVP. For each coating condition, two of the four stained pieces were then rubbed with a wet glove to determine durability of the coating to simple rubbing. The remaining two unstained sample pieces for each coating condition were then assessed for static contact angle by threefold measurement of three 3 μl drops of water on a goniometer (MicroVu 400, Santa Ana, Calif.).

For `O=C(c1ccccc1)c1ccc(OCC(O)Cn2c(=O)n(CC(O)COc3ccc(C(=O)c4ccccc4)cc3)c(=O)n(CC(O)COc3ccc(C(=O)c4ccccc4)cc3)c2=O)cc1` (stereo not shown) [Example 1], the “solubility in most common solvents” value [1] was “soluble in most common solvents”, the “Contact angle (rinse only)” value ([2]; triazine crosslinker/PVP K30, Coating 100 ml) was 35.3 ± 3.4 and the “Contact angle (rinse only)” value ([2]; triazine crosslinker/PVP K30, Coating 200 ml) was 38.7 ± 2.6. The “Contact angle (rinse only)” value ([2]; triazine crosslinker/PVP K30, Coating 500 ml) was 29.2 ± 2.2.
